Key:
Assay type in all cases: biochemical
Plutella xylostella GSTs = test: Inhibition of total GSTs enzyme of Plutella xylostella (CDNB method)
Procedure: (§1) Experiment: About 50 mg of larvae/nymphs of nine major pests such as Plutella xylostella, Mythimna separata, Pyrausta nubilalis, Chilo suppressalis, Nilaparvata lugens, Spodoptera frugiperda, Helicoverpa armigera, Carposina sasakii, Spodoptera litura were taken, grounded in a mortar pre-cooled at −80° C., and then 1 mL of 100 mM sodium phosphate buffer (1 mM EDTA, pH 7.2) was added and fully homogenized. The homogenate was transferred to a 1.5 mL centrifuge tube at 4° C., and centrifuged at 14,000 g for 30 minutes, and the supernatant was transferred to a new centrifuge tube as the GSTs total enzyme. The protein concentrations of the above total enzymes were determined using the BCA method.
(§2) 100 μL of PBS buffer (100 mM, pH 7.2) containing 1 mM GSH was taken and placed in a 96-well plate, 5 μg of insect total GSTs enzymes and an appropriate concentration of compounds PXG1-PXG29 (29 compounds) of the present invention were added to each well, after uniformly mixing, and allowed to stand at 30° C. for 10 min. Then 100 μL of PBS buffer (100 mM, pH 7.2) containing 1 mM CDNB was added to each well. Immediately after mixing, the mixture was placed in a microplate reader to measure the absorbance at a wavelength of 340 nm (A 340) once every 1 min, the measurement was carried out continuously for 5 min, the light absorption values of each measuring point were recorded and the inhibition rate in vitro of the compounds with different concentrations against insects total GSTs enzymes were calculated. Each group of assays was repeated three times, and total GSTs enzymes inactivated at 100° C. for 5 min were used as negative controls, and GTX was used as positive controls. GraphPad Prism 5 software was used for analysis and calculation of IC50. Relative inhibition was calculated using the following formula:
(§3) [formula] • wherein, A340 is the change of A340 within 5 minutes for the control group, and A340t is the change of A340 within 5 minutes for the experimental group.

Carposina sasakii GSTs = test: Inhibition of total GSTs enzyme of Carposina sasakii (CDNB method)
Procedure: as §1, §2, §3

Spodoptera litura GSTs = test: Inhibition of total GSTs enzyme of Spodoptera litura (CDNB method)
Procedure: as §1, §2, §3

Mythimna separata GSTs = test: Inhibition of total GSTs enzyme of Mythimna separata (CDNB method)
Procedure: as §1, §2, §3

Pyrausta nubilalis GSTs = test: Inhibition of total GSTs enzyme of Pyrausta nubilalis (CDNB method)
Procedure: as §1, §2, §3

Chilo suppressalis GSTs = test: Inhibition of total GSTs enzyme of Chilo suppressalis (CDNB method)
Procedure: as §1, §2, §3

Nilaparvata lugens GSTs = test: Inhibition of total GSTs enzyme of Nilaparvata lugens (CDNB method)
Procedure: as §1, §2, §3

[1] = target: Spodoptera frugiperda GSTs; test: Inhibition of total GSTs enzyme of Spodoptera frugiperda (CDNB method)
Procedure: as §1, §2, §3

[2] = target: Helicoverpa armigera GSTs; test: Inhibition of total GSTs enzyme of Helicoverpa armigera (CDNB method)
Procedure: as §1, §2, §3

PxGSTδ1 = PxGSTδ1 (Plutella xylostella, UniProt D7URW9); test: Inhibition of PxGSTδ1 recombinant protein; settings: read-out: 100 μM Inhibition rate %
Procedure: (§4) Experiment: 100 μL of PBS buffer (100 mM, pH 7.2) was taken and added to a 96-well plate, 1 μg of PxGSTs recombinant protein and an appropriate concentration of the compounds PXG1-PXG29 of the present invention were added to each well, after uniformly mixing, and allowed to stand at 30° C. for 10 min. Then 100 μL of PBS buffer (100 mM, pH 7.2) containing 1 mM CDNB and 1 mM GSH was successively added to each well. Immediately after mixing, the mixture was placed in a microplate reader to measure the absorbance at a wavelength of 340 nm (A340) once every 1 min, the measurement was continued for 5 min, the light absorption values of each measuring point were recorded and the inhibition rate in vitro of the compounds PXG1-PXG29 of the present invention with different concentrations against PxGSTs recombinant protein were calculated. Each group of assays was repeated three times, and PxGSTs recombinant protein inactivated at 100° C. for 5 min was used as negative control, and GTX was used as positive control. GraphPad Prism 5 software was used for analysis and calculation of IC50. Relative inhibition was calculated using the following formula:
(§5) [formula] • wherein, A340c is the change of A340 […] the control group, an A340t is the change of A340 within 5 minutes for the experimental group.

PxGSTσ1 = PxGSTσ1 (Plutella xylostella, UniProt Q6F436); test: Inhibition of PxGSTσ1 recombinant protein; settings: read-out: 100 μM Inhibition rate %
Procedure: as §4, §5

PxGSTσ2 = PxGSTσ2 (Plutella xylostella, UniProt Q6F443); test: Inhibition of PxGSTσ2 recombinant protein; settings: read-out: 100 μM Inhibition rate %
Procedure: as §4, §5

PxGSTε3 = PxGSTε3 (Plutella xylostella, UniProt O77409); test: Inhibition of PxGSTε3 recombinant protein; settings: read-out: 100 μM Inhibition rate %
Procedure: as §4, §5

Sequence of PxGSTσ1 (Q6F436 entry or part of it): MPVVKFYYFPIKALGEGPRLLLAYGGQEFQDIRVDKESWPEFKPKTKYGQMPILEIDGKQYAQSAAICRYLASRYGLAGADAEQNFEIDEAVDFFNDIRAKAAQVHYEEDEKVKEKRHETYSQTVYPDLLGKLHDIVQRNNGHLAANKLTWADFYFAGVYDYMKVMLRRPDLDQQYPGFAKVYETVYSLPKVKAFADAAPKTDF
Sequence of PxGSTσ2 (Q6F443 entry or part of it): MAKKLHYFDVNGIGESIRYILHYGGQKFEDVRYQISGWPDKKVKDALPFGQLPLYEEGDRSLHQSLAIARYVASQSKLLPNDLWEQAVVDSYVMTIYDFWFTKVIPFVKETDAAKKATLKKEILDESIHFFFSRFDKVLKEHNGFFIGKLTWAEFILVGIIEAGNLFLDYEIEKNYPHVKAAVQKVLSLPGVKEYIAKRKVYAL
Sequence of PxGSTδ1 (D7URW9 entry or part of it): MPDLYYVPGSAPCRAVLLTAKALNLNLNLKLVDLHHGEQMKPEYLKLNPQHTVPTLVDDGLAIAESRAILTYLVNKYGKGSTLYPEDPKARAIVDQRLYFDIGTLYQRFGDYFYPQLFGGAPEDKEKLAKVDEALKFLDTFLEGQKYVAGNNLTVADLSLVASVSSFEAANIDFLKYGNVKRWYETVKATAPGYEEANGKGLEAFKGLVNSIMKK
Sequence of PxGSTε3 (O77409 entry or part of it): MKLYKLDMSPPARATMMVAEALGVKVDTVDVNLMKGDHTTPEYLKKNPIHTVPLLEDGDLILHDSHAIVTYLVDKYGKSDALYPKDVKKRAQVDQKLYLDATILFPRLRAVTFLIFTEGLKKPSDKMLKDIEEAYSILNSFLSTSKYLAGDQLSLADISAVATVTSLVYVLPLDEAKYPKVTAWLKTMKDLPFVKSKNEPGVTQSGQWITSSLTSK

| inhibition at 100 µM (PxGSTδ1) | inhibition at 100 µM (PxGSTσ1) | inhibition at 100 µM (PxGSTσ2) | inhibition at 100 µM (PxGSTε3) | SMILES | other results |
| --- | --- | --- | --- | --- | --- |
| 77.7% | 35.9% | 26.9% | 6.04% | N#Cc1ccccc1OCC(=O)NNC(=O)c1cc(-c2ccccc2)nn1-c1ccccc1 [PXG23, 2-(2-cyanophenoxy)-N′-(1,3-diphenyl-1H-pyrazol-5-yl-carbonyl)acetohydrazide] | IC50 (Plutella xylostella GSTs): > 100 µM; 100 μM Inhibition rate % (Plutella xylostella GSTs): 26.35%; IC50 (Carposina sasakii GSTs): > 100 µM; 100 μM Inhibition rate % (Carposina sasakii GSTs): 19.76%; IC50 (Spodoptera litura GSTs): > 100 µM; 100 μM Inhibition rate % (Spodoptera litura GSTs): 12.89%; IC50 (Mythimna separata GSTs): > 100 µM; 100 μM Inhibition rate % (Mythimna separata GSTs): 22.92%; IC50 (Pyrausta nubilalis GSTs): > 100 µM; 100 μM Inhibition rate % (Pyrausta nubilalis GSTs): 15.55%; IC50 (Chilo suppressalis GSTs): > 100 µM; 100 μM Inhibition rate % (Chilo suppressalis GSTs): 22.83%; IC50 (Nilaparvata lugens GSTs): > 100 µM; 100 μM Inhibition rate % (Nilaparvata lugens GSTs): 24.74%; IC50 [1]: > 100 µM; 100 μM Inhibition rate % [1]: 22.33%; IC50 [2]: > 100 µM; 100 μM Inhibition rate % [2]: 0.43% |
| 70.9% | 19.5% | 23.4% | 0.96% | O=C(NNC(=O)C1CCCC1)c1cc(-c2ccccc2)nn1-c1ccccc1 [PXG28, N′-(1,3-diphenyl-1H-pyrazol-5-yl-carbonyl) cyclopentyl carbohydrazide] |  |
| 16.7% | 53.3% | 44.7% | 0.03% | CN(C)S(=O)(=O)c1ccc(C(=O)NNC(=O)c2cc(-c3ccccc3)nn2-c2ccccc2)cc1 [PXG29, 4-[N′-(1,3-diphenyl-1H-pyrazol-5-yl-carbonyl) hydrazinocarbonyl]-N,N-dimethyl phenyl-1-sulfonamide] | IC50 (Plutella xylostella GSTs): > 100 µM; 100 μM Inhibition rate % (Plutella xylostella GSTs): 9.32%; IC50 (Carposina sasakii GSTs): > 100 µM; 100 μM Inhibition rate % (Carposina sasakii GSTs): 33.57%; IC50 (Spodoptera litura GSTs): > 100 µM; 100 μM Inhibition rate % (Spodoptera litura GSTs): 4.60%; IC50 (Mythimna separata GSTs): > 100 µM; 100 μM Inhibition rate % (Mythimna separata GSTs): 4.90%; IC50 (Pyrausta nubilalis GSTs): > 100 µM; 100 μM Inhibition rate % (Pyrausta nubilalis GSTs): 10.83%; IC50 (Chilo suppressalis GSTs): > 100 µM; 100 μM Inhibition rate % (Chilo suppressalis GSTs): 13.81%; IC50 (Nilaparvata lugens GSTs): > 100 µM; 100 μM Inhibition rate % (Nilaparvata lugens GSTs): −10.71%; IC50 [1]: > 100 µM; 100 μM Inhibition rate % [1]: 4.82%; IC50 [2]: > 100 µM; 100 μM Inhibition rate % [2]: 10.99% |
| 21.6% | 67.9% | 24.7% | 7.12% | O=C(CC12C[C@H]3C[C@H](C1)C[C@@H](C2)C3)NNC(=O)c1cc(-c2ccccc2)nn1-c1ccccc1 [PXG26, N′-(1,3-diphenyl-1H-pyrazol-5-yl-carbonyl)-2-[(3r)-adamantan-1-yl]acetohydrazide] | IC50 (Plutella xylostella GSTs): > 100 µM; 100 μM Inhibition rate % (Plutella xylostella GSTs): 25.09%; IC50 (Carposina sasakii GSTs): > 100 µM; 100 μM Inhibition rate % (Carposina sasakii GSTs): 18.11%; IC50 (Spodoptera litura GSTs): > 100 µM; 100 μM Inhibition rate % (Spodoptera litura GSTs): 15.89%; IC50 (Mythimna separata GSTs): > 100 µM; 100 μM Inhibition rate % (Mythimna separata GSTs): 42.48%; IC50 (Pyrausta nubilalis GSTs): > 100 µM; 100 μM Inhibition rate % (Pyrausta nubilalis GSTs): −0.99%; IC50 (Chilo suppressalis GSTs): > 100 µM; 100 μM Inhibition rate % (Chilo suppressalis GSTs): 17.07%; IC50 (Nilaparvata lugens GSTs): > 100 µM; 100 μM Inhibition rate % (Nilaparvata lugens GSTs): 28.56%; IC50 [1]: > 100 µM; 100 μM Inhibition rate % [1]: 16.01%; IC50 [2]: > 100 µM; 100 μM Inhibition rate % [2]: 24.75% |
| 41.7% | 25.1% | 42.4% | 17.6% | O=C(NNC(=O)c1cc(-c2ccccc2)nn1-c1ccccc1)c1ccc(=O)[nH]n1 [PXG27, N′-(1,3-diphenyl-1H-pyrazol-5-yl-carbonyl)-6-oxo-1,6-dihydropyridazin-3-yl-carbohydrazide] |  |
| 69.5% | 37.8% | 42.4% | -3.3% | O=C(NNC(=O)[C@@H]1COc2ccccc2O1)c1cc(-c2ccccc2)nn1-c1ccccc1 [PXG8, (2S)-N′-(1,3-diphenyl-1H-pyrazol-5-yl-carbonyl)-2,3-dihydro-1,4-benzodioxin-2-yl-carbohydrazide] |  |
| 23.1% | 14.9% | 19.7% | 28.3% | CCOC(=O)NNC(=O)c1cc(-c2ccccc2)nn1-c1ccccc1 [PXG24, N′-(ethoxycarbonyl)-1,3-diphenyl-1H-pyrazol-5-yl-carbohydrazide] |  |
| 2.22% | 48.9% | 43.9% | 4.43% | COc1cccc(C2(C)NC(=O)N(NC(=O)c3cc(-c4ccccc4)nn3-c3ccccc3)C2=O)c1 (centres unmarked) [PXG17, N-[4-(3-methoxyphenyl)-4-methyl-2,5-dioxaimidazolin-1-yl]-1,3-diphenyl-1H-pyrazol-5-yl-carboxamide] |  |
| 23.8% | -1.47% | 15.3% | 2.07% | O=C(NNC(=O)c1cc(-c2ccccc2)nn1-c1ccccc1)c1cccnc1O [PXG25, N′-(1,3-diphenyl-1H-pyrazol-5-yl-carbonyl)-2-hydroxypyridin-3-yl-carbohydrazide] |  |
| 23% | 71.8% | 29.6% | -15.7% | O=C(NNC(=O)c1cc(-c2ccc(Cl)cc2)nn1-c1ccccc1)c1ccccn1 [PXG20, N′-[3-(4-chlorophenyl)-1-phenyl-1H-pyrazol-5-yl-carbonyl]pyridin-2-yl-carbohydrazide] |  |
| 14.1% | 34.2% | 22.8% | 18.4% | CCC1(C)NC(=O)N(NC(=O)c2cc(-c3ccccc3)nn2-c2ccccc2)C1=O (centres unmarked) [PXG13, N-(4-ethyl-4-methyl-2,5-dioxaimidazolin-1-yl)-1,3-diphenyl-1H-pyrazol-5-yl-carboxamide] |  |
| 55.7% | 35.1% | 20.1% | 5.93% | O=C(NNC(=O)c1cc(-c2ccc(Cl)cc2)nn1-c1ccccc1)c1cccnc1 [PXG7, N′-[3-(4-chlorophenyl)-1-phenyl-1H-pyrazol-5-yl-carbonyl]pyridin-3-yl-carbohydrazide] |  |
| 14.9% | 52.2% | 36.4% | 15.3% | COc1ccc(C2(C)NC(=O)N(NC(=O)c3cc(-c4ccccc4)nn3-c3ccccc3)C2=O)cc1 (centres unmarked) [PXG14, N-[4-(4-methoxyphenyl)-4-methyl-2,5-dioxaimidazolin-1-yl]-1,3-diphenyl-1H-pyrazol-5-yl-carboxamide] |  |
| 7.82% | 44.9% | 11.7% | -2.67% | CCn1c(C)nc2cc(C(=O)NNC(=O)c3cc(-c4ccccc4)nn3-c3ccccc3)ccc21 [PXG21, N′-(1-ethyl-2-methyl-1H-1,3-benzodiazol-5-yl-carbonyl)-1,3-diphenyl-1H-pyrazol-5-yl-carbohydrazide] |  |

— patent publication US12617771B2, “Diphenylpyrazole compound, and preparation method therefor and application thereof” (NORTHWEST A&F UNIVERSITY, priority 2021, dated 2026)
